Measured values reported in EP0446604A2, “Pyridine and related aza heterocycle derivatives as cardiovascular agents” (AMERICAN CYANAMID COMPANY, priority 1990, dated 1991).

Assays:
[1] = molecular target: T1, thromboxane synthetase enzyme (Rattus norvegicus, UniProt P49430); assay: Inhibition of thromboxane (TXB2) formation in washed rat platelets, TXB2 radioimmunoassay; type: biochemical, Okamoto-Aoki spontaneously hypertensive rats (SHR); details: Concentration 1x10^-4M, platelet suspension incubated 10 minutes at 37 °C
T1 construct: from tissue; host or cells: washed blood platelets from Okamoto-Aoki spontaneously hypertensive rats (SHR)
T1 sequence (P49430 1-533): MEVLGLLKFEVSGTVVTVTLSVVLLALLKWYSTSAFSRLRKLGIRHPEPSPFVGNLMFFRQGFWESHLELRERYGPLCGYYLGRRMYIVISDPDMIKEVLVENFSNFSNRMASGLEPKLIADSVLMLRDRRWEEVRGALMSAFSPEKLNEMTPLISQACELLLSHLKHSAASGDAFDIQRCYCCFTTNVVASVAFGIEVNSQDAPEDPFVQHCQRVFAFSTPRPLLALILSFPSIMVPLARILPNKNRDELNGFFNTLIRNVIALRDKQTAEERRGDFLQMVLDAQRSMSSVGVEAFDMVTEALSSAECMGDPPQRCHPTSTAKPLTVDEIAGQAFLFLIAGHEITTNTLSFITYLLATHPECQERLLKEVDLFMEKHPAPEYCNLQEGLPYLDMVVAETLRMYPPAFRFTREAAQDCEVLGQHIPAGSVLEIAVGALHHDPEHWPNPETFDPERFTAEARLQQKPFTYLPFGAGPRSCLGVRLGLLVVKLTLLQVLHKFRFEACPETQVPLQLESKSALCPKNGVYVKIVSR
Procedure: Under urethan anesthesia, […] of arterial blood from Okamoto-Aoki spontaneously hypertensive rats (SHR) (Taconic Farms, Germantown, NY) between 19 and 24 weeks in age is collected in one ml of 3.2% sodium citrate in a polystyrene tube. The blood is diluted with 3 ml of cold saline and centrifuged at room temperature for 15 minutes at 460xg. The platelet rich plasma (PRP) is separated. The platelets are isolated by centrifuging the PRP for 10 minutes at 1060xg and are washed in 4 ml of cold oxygenated Krebs phosphate buffer, pH 7.4. The chilled platelets, recovered from centrifuging at 800xg for 10 minutes, are resuspended in oxygenated Krebs phosphate buffer and diluted to contain 4.5-6.0 x 10⁴ platelets/µ1. The inhibition of thromboxane (TX) formation is studied by determining the concentration of thromboxane B₂ (TXB₂), the stable hydrolysis product of TXA₂. Assay samples, prepared on ice, contain 200 µ1 platelet suspension, 50 µ1 saline, and 50 µ1 vehicle (saline) or drug under study. The samples are incubated for 10 minutes at 37 °C in a metabolic shaker. The reaction is terminated by immersing the tubes in an ice bath and adding 50 µl of 0.5M citric acid. The samples are centrifuged for 10 minutes in a refrigerated centrifuge and the supernatants thus obtained are decanted and stored at -20 °C. The TXB₂ content for each sample is determined by a direct radioimmunoassay (RIA) utilizing a TXB₂ specific RIA kit purchased from New England Nuclear, Boston, MA and expressed as pg TXB₂ formed per minute per sample, from which the percent inhibition of TXB₂ formation is calculated.

[2] = system: spontaneously hypertensive rats of the Okamoto strain; assay: Hypotensive activity in spontaneously hypertensive rats (method of Chan and Poorvin); type: in vivo; details: by gavage, 100 mg/kg or less, second identical dose 24 hours later; MABP measured 28 hours after initial dose; average MABP of the rats used 160±1.5 mm of mercury
Procedure: The novel compounds of the present invention are active hypotensive agents and were tested for hypotensive activity by the method of P.S. Chan and D. Poorvin, Clinical and Experimental Hypertension, 1 (6), 817-830 (1979). Male, 16 week old, spontaneously hypertensive rats of the Okamoto strain, from Taconic Farms, Germantown, New York, having an average mean arterial blood pressure of 160±1.5 mm of mercury, were used in the test. One to four rats were used per test compound. A rat is dosed by gavage with a test compound suspended in 2% pre-boiled starch at a concentration of 50 mg/ml, at a dose of 100 mg/kg of body weight or less, with 0.9% sodium chloride loading at a dose of 25 ml/kg of body weight. A second identical dose of the test compound, without sodium chloride loading is given 24 hours later. At 28 hours after the initial dose the mean arterial blood pressure (MABP) is measured. The procedure is repeated in a second and third rat when necessary. The results of this test on representative compounds of the present invention appear below in Table II.

[3] = system: Male mice of the Swiss Webster Strain; assay: Calcium chloride-induced arrhythmia in anesthetized mice (survival); type: in vivo; details: Mus musculus, iv, Dose = 10 mg/kg i.v.; calcium chloride 200 mg/kg i.v. bolus 5, 15 or 30 minutes after drug; observed 15 minutes; read-out: CaCl2 #Mice Surviving #Mice Tested (converted)
Source text: (§1) Intravenous administration of high doses of calcium or potassium chloride in animals produces cardiac arrhythmias, cardiac fibrillation and cardiac arrest. Any agent that can prevent these events is considered an antiarrhythmic/antifibrillatory agent. (Meth. and Find Exptl. Clin Pharmacol.2:223-252(1980); Pharmacol, Ther. 24:401-433 (1984); Experimental Cardiac and Antiarrhythmic Drugs, L. Szekeres and Gy. J. Dapp, Akademiai Kiado Preso, Budapest, 9-448 (1971).)
(§2) The method employed is as follows: Male mice of the Swiss Webster Strain (Charles River, Wilmington, MA) weighing 25-35 g are anesthetized with ethyl carbamate (urethan) (1.5g/kg body weight i.p.). A 25-gauge needle attached to PE-20 tubing is inserted into a caudal vein for drug administration. The lead II ECG is recorded by needle electrodes placed subcutaneously in the limbs. All data is collected on a Gould Brush recorder. Animals are observed 5 minutes before drug administration. A 5, 15, or 30 minute period following drug administration is allowed before the bolus injection of calcium chloride, 200 mg/kg i.v. or potassium chloride, 62.5 mg/kg i.v. Control mice receive 4 ml/kg of 0.9% sodium chloride i.v. Mice are observed an additional 15 minutes for arrhythmias, fibrillation, survival or death. Any compound at a dose of less than 20 mg/kg i.v. that protects 3 out of 6 mice from cardiac death in either the potassium or calcium chloride test, is considered active.

[4] = system: Male mice of the Swiss Webster Strain; assay: Potassium chloride-induced arrhythmia in anesthetized mice (survival); type: in vivo; details: Mus musculus, iv, Dose = 10 mg/kg i.v.; potassium chloride 62.5 mg/kg i.v. bolus 5, 15 or 30 minutes after drug; observed 15 minutes; read-out: KCl #Mice Surviving #Mice Tested (converted)
Source text: as §1, §2

Structure (SMILES)	inhibition at 100 µM [1]	Avg. MABP in mm Hg (No. of Rats) [2]	responders at 10 mg/kg [3]	responders at 10 mg/kg [4]
Cc1nc(NCCCn2ccnc2)ccc1C#N [Example 30, 6-[[3-(1H-Imidazol-1-yl)propyl]amino]-2-methyl-3-pyridinecarbonitrile]	94%	61 (2) mm Hg	16.7%	100%
N#Cc1cccnc1NCCCn1ccnc1 [Example 4, 2-[[3-(1H-Imidazol-1-yl)propyl]amino]-3-pyridinecarbonitrile]	93%	117 (4) mm Hg	66.7%	16.7%
Cc1cc(NCCCn2ccnc2)nc2c(C)cccc12 [Example 32, N-[3-(1H-Imidazol-1-yl)propyl]-4,8-dimethyl-2-quinolinamine]	98%	96 (2) mm Hg	0%	50%
